What is called IC50 is the concentration that inhibits the measured activity by half. Low readings indicate greater potency, high ones weaker potency.

Experiment [1] concerns the target human CYP4F2 (Homo sapiens (Human), UniProt P78329). Briefly: Inhibition test against 20-HETE producing enzyme CYP4F2 (luciferine derivative, luminescence). Format: biochemical. As to conditions: E. coli membrane fraction expressing human CYP4F2, 2.5 μM luciferine derivative, room temperature 60 minutes. The method, boiled down: (§1)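 IC50 derived from luminescence after 60 min at room temperature with membrane fractions of E. coli expressing each human CYP (100 μg/mL protein). For CYP4A11, 60 μM luciferin derivative in 100 mM Tris-HCl pH 7.5 with NADPH-regenerating system; for CYP4F2, 2.5 μM substrate, 1 mM NADPH, 50 mM KPO4 pH 7.4.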

Experiment [2] deals with human CYP4A11 (Homo sapiens (Human), UniProt Q02928). Briefly: Inhibition test against 20-HETE producing enzyme CYP4A11 (luciferine derivative, luminescence). Format: biochemical. To be noted: E. coli membrane fraction expressing human CYP4A11, 60 μM luciferine derivative, room temperature 60 minutes. The method, boiled down: as §1
Chain of human CYP4A11 (Q02928 5-519): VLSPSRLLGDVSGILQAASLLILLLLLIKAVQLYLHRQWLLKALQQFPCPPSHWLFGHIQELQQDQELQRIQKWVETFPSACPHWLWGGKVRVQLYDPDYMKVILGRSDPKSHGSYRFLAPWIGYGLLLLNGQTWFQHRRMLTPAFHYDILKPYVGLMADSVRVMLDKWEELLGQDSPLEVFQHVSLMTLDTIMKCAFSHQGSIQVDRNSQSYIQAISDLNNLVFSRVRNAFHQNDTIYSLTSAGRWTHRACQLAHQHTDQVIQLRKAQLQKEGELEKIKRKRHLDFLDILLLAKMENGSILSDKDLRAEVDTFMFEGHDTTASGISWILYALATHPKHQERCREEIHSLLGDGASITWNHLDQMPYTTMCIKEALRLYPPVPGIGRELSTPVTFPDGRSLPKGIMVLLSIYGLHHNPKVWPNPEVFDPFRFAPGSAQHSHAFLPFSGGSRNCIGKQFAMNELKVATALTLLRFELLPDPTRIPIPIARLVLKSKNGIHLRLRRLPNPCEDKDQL

Chain of human CYP4F2 (P78329 5-520): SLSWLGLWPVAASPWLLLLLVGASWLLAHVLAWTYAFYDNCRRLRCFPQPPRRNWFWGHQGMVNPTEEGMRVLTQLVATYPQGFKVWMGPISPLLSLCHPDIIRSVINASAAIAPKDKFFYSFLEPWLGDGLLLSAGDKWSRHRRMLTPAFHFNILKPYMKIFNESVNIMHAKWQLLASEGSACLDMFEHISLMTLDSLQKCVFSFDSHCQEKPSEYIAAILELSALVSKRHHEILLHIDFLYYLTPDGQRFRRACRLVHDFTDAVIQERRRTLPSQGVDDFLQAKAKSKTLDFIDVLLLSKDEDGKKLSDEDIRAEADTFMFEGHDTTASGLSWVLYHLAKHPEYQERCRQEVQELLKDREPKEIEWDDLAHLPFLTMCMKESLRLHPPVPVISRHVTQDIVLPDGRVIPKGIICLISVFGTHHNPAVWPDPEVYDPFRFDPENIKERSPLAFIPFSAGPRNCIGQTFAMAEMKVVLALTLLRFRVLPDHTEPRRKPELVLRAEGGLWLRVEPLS

Take `O=C(O)c1ccnc(CCCOc2ccc(-c3ccn[nH]3)nc2)c1` [Example 29-2, 2-[3-[[6-(1H-Pyrazol-5-yl)-3-pyridinyl]oxy]propyl]-4-pyridinecarboxylic Acid]: the IC50 in experiment [1] was found to be 2.7 µM; in experiment [2], 1.3 µM.

Take `O=C(O)c1ncc(CCCCOc2ccc(-c3ccn[nH]3)nc2)cn1` [Example 29-3]: the half-inhibitory concentration (IC50) was determined as 0.084 µM in experiment [1] and 0.38 µM in experiment [2].

As to `O=C(O)c1ccc(CCCCOc2ccc(-c3ccn[nH]3)nc2)cn1` [Example 29-4], the IC50 in experiment [1] came to 0.24 µM; in experiment [2] it was 0.042 µM.

`O=C(O)c1cccc(CCCCOc2ccc(-c3ccn[nH]3)nc2)n1` [Example 29-5]: the IC50 in experiment [1] worked out at 0.69 µM; in experiment [2], 0.029 µM.

On to `O=C(O)CCCc1cccc(COc2ccc(-c3ccn[nH]3)nc2)c1` [Example 30-1, 4-[3-[[6-(1H-Pyrazol-5-yl)-3-pyridinyl]oxymethyl]phenyl]butanoic Acid], for which the values for the IC50 in experiment [1] and in experiment [2] were 1.4 µM and 0.017 µM, respectively.

Regarding `O=C(O)CCCc1ccc(COc2ccc(-c3ccn[nH]3)nc2)cc1` [Example 30-2], the values for the concentration for half-maximal inhibition (IC50) in experiment [1] and in experiment [2] were 0.19 µM and 0.16 µM, respectively.

With `O=C(O)CCc1cccc(CCCOc2ccc(-c3ccn[nH]3)nc2)c1` [Example 30-3, 3-[3-[3-[[6-(1H-Pyrazol-5-yl)-3-pyridinyl]oxy]propyl]phenyl]propanoic Acid], the IC50 in experiment [1] is 0.37 µM; in experiment [2] it was 0.15 µM.

On to `O=C(O)CCCc1cccc(CCCOc2ccc(-c3ccn[nH]3)nc2)c1` [Example 30-4], for which the concentration for half-maximal inhibition (IC50) in experiment [1] came to 0.35 µM; in experiment [2], 0.14 µM.

`O=C(O)CCCc1ccc(CCCOc2ccc(-c3ccn[nH]3)nc2)cc1` [Example 30-5]: the IC50 in experiment [1] is 0.074 µM; in experiment [2], 0.42 µM.

In the case of `O=C(O)c1cccc(-c2cccc(COc3ccc(-c4ccn[nH]4)nc3)c2)c1` [Example 31-1, 3-[3-[[6-(1H-Pyrazol-5-yl)-3-pyridinyl]oxymethyl]phenyl]benzoic Acid], the IC50 in experiment [1] worked out at 0.11 µM; in experiment [2], 0.0093 µM.

In the case of `O=C(O)c1ccc(-c2cccc(COc3ccc(-c4ccn[nH]4)nc3)c2)cc1` [Example 31-2], the 50% inhibitory concentration (IC50) in experiment [1] came out at 0.1 µM; in experiment [2], 0.0098 µM.

With `O=C(O)c1ccc(-c2cccc(COc3ccc(-c4ccn[nH]4)nc3)c2)cn1` [Example 31-3, 5-[3-[[6-(1H-Pyrazol-5-yl)-3-pyridinyl]oxymethyl]phenyl]-2-pyridinecarboxylic Acid], the 50% inhibitory concentration (IC50) in experiment [1] stood at 0.18 µM; in experiment [2] it was 0.025 µM.

On to `O=C(O)c1cncc(-c2cccc(COc3ccc(-c4ccn[nH]4)nc3)c2)c1` [Example 31-4], for which the IC50 in experiment [1] turned out to be 0.39 µM; in experiment [2], 0.012 µM.

Consider `O=C(O)Cc1cccc(CCCOc2ccc(-c3ccn[nH]3)nc2)c1` [Example 32-1, 2-[3-[3-[[6-(1H-Pyrazol-5-yl)-3-pyridinyl]oxy]propyl]phenyl]acetic Acid], for which the IC50 in experiment [1] amounted to 0.43 µM; in experiment [2] it was 0.033 µM.

Regarding `CC(C)(C(=O)O)c1cccc(CCCOc2ccc(-c3ccn[nH]3)nc2)c1` [Example 32-2], the figures for the IC50 in experiment [1] and in experiment [2] were 1.3 µM and 0.022 µM, respectively.

For `CC(=O)N1CCC(C(=O)O)(c2cccc(COc3ccc(-c4ccn[nH]4)nc3)c2)CC1` [Example 33-1, 1-Acetyl-4-[3-[[6-(1H-pyrazol-5-yl)-3-pyridinyl]oxymethyl]phenyl]-4-piperidinecarboxylic Acid], the IC50 in experiment [1] came to 7 µM; in experiment [2] it was 0.18 µM.

`O=C(O)C1(c2cccc(COc3ccc(-c4ccn[nH]4)nc3)c2)CCOCC1` [Example 33-2, 4-[3-[[6-(1H-Pyrazol-5-yl)-3-pyridinyl]oxymethyl]phenyl]-4-oxanecarboxylic Acid]: the concentration for half-maximal inhibition (IC50) in experiment [1] amounted to 14 µM; in experiment [2] it was 0.13 µM.

Regarding `O=C(O)C1CCN(c2cccc(COc3ccc(-c4ccn[nH]4)nc3)c2)CC1` [Example 34-1, 1-[3-[[6-(1H-Pyrazol-5-yl)-3-pyridinyl]oxymethyl]phenyl]-4-piperidinecarboxylic Acid], the IC50 worked out at 4.1 µM in experiment [1] and 0.042 µM in experiment [2].

As for `O=C(O)C1CCCN(c2cccc(COc3ccc(-c4ccn[nH]4)nc3)c2)C1` (centres unmarked) [Example 34-2], the half-maximal inhibitory concentration (IC50) in experiment [1] is 11 µM; in experiment [2] it was 0.05 µM.

As for `O=C(O)c1cnn(-c2cccc(COc3ccc(-c4ccn[nH]4)nc3)c2)c1` [Example 34-3, 1-[3-[[6-(1H-Pyrazol-5-yl)-3-pyridinyl]oxymethyl]phenyl]-4-pyrazolecarboxylic Acid], the 50% inhibitory concentration (IC50) in experiment [1] came to 0.39 µM; in experiment [2], 0.026 µM.

Take `O=C(O)Cn1cc(CCCOc2ccc(-c3ccn[nH]3)nc2)nn1` [Example 35-1, 2-[4-[3-[[6-(1H-Pyrazol-5-yl)-3-pyridinyl]oxy]propyl]-1-triazolyl]acetic Acid]: the half-inhibitory concentration (IC50) came out at 20 µM in experiment [1] and 3 µM in experiment [2].

Turning to `O=C(O)Cn1cc(CCCCOc2ccc(-c3ccn[nH]3)nc2)nn1` [Example 35-2], the figures for the 50% inhibitory concentration (IC50) in experiment [1] and in experiment [2] were 5.7 µM and 0.36 µM, respectively.

As for `CC(C)(C(=O)O)n1cc(CCCCOc2ccc(-c3ccn[nH]3)nc2)nn1` [Example 35-3], the results for the IC50 in experiment [1] and in experiment [2] were 7.4 µM and 0.29 µM, respectively.

As for `CC(C)(O)CS(=O)(=O)c1cccc(COc2ccc(-c3ccn[nH]3)nc2)c1` [Example 36-1, 2-Methyl-1-[3-[[6-(1-H-pyrazol-5-yl)-3-pyridinyl]oxymethyl]phenyl] sulfonyl-2-propanol], the half-maximal inhibitory concentration (IC50) in experiment [1] came to 0.093 µM; in experiment [2], 0.082 µM.

With `CC(C)(CCCS(=O)(=O)c1cccc(COc2ccc(-c3ccn[nH]3)nc2)c1)C(=O)O` [Example 37-1, 2,2-Dimethyl-5-[3-[[6-(1H-pyrazol-5-yl)-3-pyridinyl]oxymethyl]phenyl] sulfonylpentanoic Acid], the figures for the 50% inhibitory concentration (IC50) in experiment [1] and in experiment [2] were 0.032 µM and 0.046 µM, respectively.

Consider `O=C(O)CCc1cccc(COc2cnc(-c3ccn[nH]3)c(F)c2)c1` [Example 38-1, 3-[3-[[5-Fluoro-6-(1H-pyrazol-5-yl)-3-pyridinyl]oxymethyl]phenyl]propanoic Acid], for which the IC50 in experiment [1] turned out to be 1.1 µM; in experiment [2], 0.02 µM.

Take `O=C(O)Cc1cccc(COc2ccc(-c3cn[nH]c3)nc2)c1` [Example 38-2, 2-[3-[[6-(1H-Pyrazol-4-yl)-3-pyridinyl]oxymethyl]phenyl]acetic Acid]: the half-inhibitory concentration (IC50) turned out to be 19 µM in experiment [1] and 0.011 µM in experiment [2].

On to `Cc1cn[nH]c1-c1ccc(OCC23CCC(C(=O)O)(CC2)CC3)cn1` [Example 38-3, 1-[[6-(4-Methyl-1H-pyrazol-5-yl)-3-pyridinyl]oxymethyl]-4-bicyclo[2.2.2]octanecarboxylic Acid], for which the results for the IC50 in experiment [1] and in experiment [2] were 17 µM and 0.035 µM, respectively.

Regarding `O=C(O)Cc1cccc(COc2ccc(-c3ccns3)nc2)c1` [Example 39-1, 2-[3-[[6-(5-Isothiazolyl)-3-pyridinyl]oxymethyl]phenyl]acetic Acid], the half-maximal inhibitory concentration (IC50) in experiment [1] stood at 13 µM; in experiment [2], 0.0053 µM.

With `O=C(O)C12CCC(COc3ccc(-c4ccns4)nc3)(CC1)CC2` [Example 39-2], the IC50 in experiment [1] was found to be 22 µM; in experiment [2] it was 0.018 µM.

For the molecule `O=C(O)Cc1cccc(COc2ccc(-c3cnco3)nc2)c1` [Example 40-1, 2-[3-[[6-(5-Oxazolyl)-3-pyridinyl]oxymethyl]phenyl]acetic Acid], the results for the 50% inhibitory concentration (IC50) in experiment [1] and in experiment [2] were 28 µM and 0.0099 µM, respectively.

Consider `O=C(O)Cc1cccc(COc2ccc(-c3cncs3)nc2)c1` [Example 40-2], for which the IC50 came to 8.2 µM in experiment [1] and 0.0069 µM in experiment [2].

Consider `NS(=O)(=O)c1cccc(C(=O)N2CCC[C@@H](COc3ccc(-c4ccn[nH]4)nc3)C2)c1` [Example 41-1, 3-[Oxo-[(3R)-3-[[6-(1H-pyrazol-5-yl)-3-pyridinyl]oxymethyl]-1-piperidinyl]methyl]benzenesulfonamide], for which the values for the half-maximal inhibitory concentration (IC50) in experiment [1] and in experiment [2] were 0.59 µM and 0.25 µM, respectively.

For the molecule `NS(=O)(=O)c1ccc(C(=O)N2CCC[C@@H](COc3ccc(-c4ccn[nH]4)nc3)C2)cc1` [Example 41-2], the IC50 in experiment [1] worked out at 0.45 µM; in experiment [2], 0.33 µM.

For `O=C(c1ccc(=O)[nH]c1)N1CCC[C@@H](COc2ccc(-c3ccn[nH]3)nc2)C1` [Example 41-3], the half-inhibitory concentration (IC50) turned out to be 4.3 µM in experiment [1] and 0.57 µM in experiment [2].

As for `O=C(c1cccc(=O)[nH]1)N1CCC[C@@H](COc2ccc(-c3ccn[nH]3)nc2)C1` [Example 41-4], the IC50 in experiment [1] worked out at 1.5 µM; in experiment [2] it was 0.71 µM.

Take `CCS(=O)(=O)NCC(=O)N1CCC[C@@H](COc2ccc(-c3ccn[nH]3)nc2)C1` [Example 41-5]: the IC50 stood at 0.55 µM in experiment [1] and 1.1 µM in experiment [2].

For the molecule `NS(=O)(=O)CCCC(=O)N1CCC[C@@H](COc2ccc(-c3ccn[nH]3)nc2)C1` [Example 41-6], the IC50 in experiment [1] was 0.32 µM; in experiment [2], 0.44 µM.

For the molecule `CNC(=O)c1cccc(COc2ccc(-c3ccn[nH]3)nc2)c1` [Example 42-1, N-Methyl-3-[[6-(1H-pyrazol-5-yl)-3-pyridinyl]oxymethyl]benzamide], the concentration for half-maximal inhibition (IC50) in experiment [1] stood at 0.076 µM; in experiment [2], 0.42 µM.

Regarding `CCCNC(=O)c1cccc(COc2ccc(-c3ccn[nH]3)nc2)c1` [Example 42-2], the 50% inhibitory concentration (IC50) in experiment [1] is 0.025 µM; in experiment [2], 0.11 µM.

As for `O=C(NCCO)c1cccc(COc2ccc(-c3ccn[nH]3)nc2)c1` [Example 42-3], the IC50 was found to be 0.21 µM in experiment [1] and 0.35 µM in experiment [2].

As for `CNC(=O)Cc1cccc(COc2ccc(-c3ccn[nH]3)nc2)c1` [Example 42-4], the concentration for half-maximal inhibition (IC50) came to 0.012 µM in experiment [1] and 0.54 µM in experiment [2].

Regarding `CN(C)C(=O)Cc1cccc(COc2ccc(-c3ccn[nH]3)nc2)c1` [Example 42-5], the IC50 in experiment [1] was found to be 0.26 µM; in experiment [2], 0.2 µM.
